Patent US9359399B2, “Synthetic peptide amides” (Cara Therapeutics, Inc., priority 2006, dated 2016)

What was measured:
[1] = system: acetic acid-induced writhing in mice; assay: Acetic acid-induced writhing assay in mice; assay type: in vivo, ICR mice; conditions: mice
Method: 12: 525-562; Ramabadran and Bansinath (1986) Pharm. Res. 3: 263-270]. Intraperitoneal administration of dilute acetic acid solution causes a writhing behavior in mice. A writhe is defined as a contraction of the abdominal muscles accompanied by an extension of the forelimbs and elongation of the body. The number of writhes observed in the presence and absence of test compounds is counted to determine the analgesic activity of the compounds.
Each day a writhing assay was performed, a vehicle control group of mice (n=6-8) that were treated identically to the test group (except that test compound was omitted from the injection dose) was always included and the average total number of writhes in this group used as the absolute reference point defining 0% decrease in pain perception for all other mice receiving a test compound on that day. Specifically, the total number of writhes of each mouse receiving the test compound was converted to % decrease in pain perception according to the following equation:
[formula] Where Wv is the mean number of writhes in vehicle-treated group and Wc is the number of writhes in compound-treated mouse.
Male ICR mice, 23-37 grams in weight, were weighed and placed in individual observation chambers (usually a 4000 ml glass beaker) with a fine layer of SANI-CHIPS rodent bedding at the bottom. […] After administration of the compound or vehicle control, mice were returned to their individual observation chambers awaiting the intraperitoneal administration of acetic acid solution. […] and acetic acid injection, a dose corresponding to 10 ml/kg of a 0.6% (v/v) acetic acid solution was then injected into the right lower quadrant of the abdomen. Immediately after the injection, the mouse was returned to its observation chamber and the recording of the number of writhes begun immediately. The number of writhes was counted over a 15-min period starting from the time of acetic acid injection, the data being collected over three separate 5 minute time periods (0-5 min, 5-10 min, and 10-15 min).
The data were reported as ED50, and Hill coefficient. […] The Hill coefficient is expressed as the arithmetic mean±sem calculated from the values obtained from the animals.
For dose-response analysis, raw data were converted to % maximum possible effect (% MPE) using the formula: % MPE=((test score−vehicle-treated score)/(0−vehicle-treated score))*100. Raw data were analyzed using a one-way ANOVA followed by Dunnett's post-tests. […] Compounds were administered by the intravenous route.

[2] = system: mechanical hypersensitivity induced by L5/L6 spinal nerve ligation in rats; assay: Spinal nerve ligation (SNL) model of neuropathic pain; assay type: in vivo, rat; conditions: intravenous route
Method: The SNL model (Kim and Chung 1992) was used to induce chronic neuropathic pain. The rats were anesthetized with isoflurane, the left L5 transverse process was removed, and the L5 and L6 spinal nerves were tightly ligated with 6-0 silk suture. The wound was then closed with internal sutures and external staples. Fourteen days following SNL, baseline, post-injury and post-treatment values for non-noxious mechanical sensitivity were evaluated using 8 Semmes-Weinstein filaments (Stoelting, Wood Dale, Ill., USA) with varying stiffness (0.4, 0.7, 1.2, 2.0, 3.6, 5.5, 8.5, and 15 g) according to the up-down method (Chaplan et al. 1994). Animals were placed on a perforated metallic platform and allowed to acclimate to their surroundings for a minimum of 30 minutes before testing. The mean and standard error of the mean (SEM) were determined for each paw in each treatment group. Since this stimulus is normally not considered painful, significant injury-induced increases in responsiveness in this test are interpreted as a measure of mechanical allodynia. […] Compound (2) was administered by the intravenous route. FIG. 10 summarizes the results of these experiments.

[3] = system: capsaicin-induced ocular pain; assay: Capsaicin-induced ocular pain, palpebral opening in rabbits; assay type: in vivo, albino New Zealand strain rabbits; conditions: 10-30 min. post capsaicin
[4] = system: pancreatitis-induced abdominal hypersensitivity in rats; assay: Rat pancreatitis model (dibutylin dichloride), abdominal hypersensitivity; assay type: in vivo; conditions: intraperitoneal route
Method: Chronic pancreatic inflammation was induced in rats by intravenous administration of dibutylin dichloride (DBTC, Aldrich Milwaukee, Wis.) dissolved in 100% ethanol at a dose of 8 mg/kg under isofluorane anesthesia (2-3 liters/min, 4%/vol until anesthetized, then 2.5%/vol throughout the procedure. Control animals received the same volume of vehicle (100% ethanol) alone. Pancreatitis pain was assessed by determination of abdominal sensitivity to probing the abdomen of rats with a calibrated von Frey filament (4 g). Rats were allowed to acclimate in suspended wire-mesh cages for 30 min before testing. A response was indicated by the sharp withdrawal of the abdomen, licking of abdominal area, or whole body withdrawal. […] The mean occurrence of withdrawal events in each trial is expressed as the number of responses to 10 applications. Rats without inflammation of the pancreas typically display withdrawal frequencies to probing with von Frey filament of 0-1. The animals were allowed to recover for 6 days after DBTC administration prior to any pharmacological manipulations.
The number of positive responses, following abdominal probing (out of a possible 10), were recorded at each time point. […] Raw data were analyzed using a two-way repeated measures ANOVA followed by Bonferroni post-tests. […]

[5] = system: pruritus induced by compound 48/80 in mice; assay: Pruritus model in mice, compound 48/80-induced scratching; assay type: in vivo, Swiss Webster mice; conditions: inhibition of scratching
Method: (§1) Groups of 10 (and in one case, 11) male Swiss Webster mice (25-30 g) were used. Each animal was weighed and allowed to acclimate for at least one hour in individual, rectangular observation boxes. The tails of mice were immersed for 30 seconds in warm water to dilate tail veins and the animals then received an intravenous injection of either vehicle (saline) or compound (2) (0.01, 0.03, 0.10 and 0.30 mg of free base/kg). Fifteen minutes later, each mouse was given either GNTI dihydrochloride (Tocris) (0.30 mg/kg; 0.25 ml/25 g) or compound 48/80 (Sigma) (50 μg in 0.10 ml saline) subcutaneously behind the neck. The animals were then observed in pairs (occasionally in threes) and the number of hind leg scratching movements directed at the neck was counted for 30 minutes. […]

[6] = system: pruritus induced by GNTI in mice; assay: Pruritus model in mice, GNTI-induced scratching; assay type: in vivo, Swiss Webster mice; conditions: inhibition of scratching
Method: as §1

For `CC(C)C[C@@H](NC(=O)[C@@H](Cc1ccccc1)NC(=O)[C@H](N)Cc1ccccc1)C(=O)N[C@H](CCCCN)C(=O)N1CCC(N)(C(=O)O)CC1` [Compound (2), D-Phe-D-Phe-D-Leu-D-Lys-[ω(4-aminopiperidine-4-carboxylic acid)]-OH], the “dose response in the acetic acid-induced writhing model” value ([1]; intravenously, 0.01 mg/kg to 0.3 mg/kg) was “linear dose response relationship”, the “ED50 (mg/kg, iv, 15 min post-dose)” value ([1]; iv, 15 min post-dose) was 0.07 mg/kg and the “% MPE (180 min post-ED90)” value ([1]; iv, 180 min post-ED90) was 77 ± 5% MPE. For the same compound, the “% MPE (240 min post-ED90)” value ([1]; iv, 240 min post-ED90) was 81 ± 4% MPE, the “% MPE (300 min post-ED90)” value ([1]; iv, 300 min post-ED90) was 84 ± 4% MPE and the “ED50, attenuation of mechanical hypersensitivity (SNL model)” value [2] was 0.38 mg/kg. The “Mean palpebral opening (% Control)” value ([3]; Table VII, 10 mg/ml, five animals) was 82.7 % Control, the “Mean palpebral opening (% Control)” value ([3]; Table VIII, 1 mg/ml, ten animals) was 60.5 % Control and the “Mean palpebral opening (% Control)” value ([3]; Table VIII, 10 mg/ml, ten animals) was 56.6 % Control. For the same compound, the “Mean palpebral opening (% Control)” value ([3]; Table VIII, 25 mg/ml, ten animals) was 75.5 % Control, the “Mean palpebral opening (% Control)” value ([3]; Table VIII, 50 mg/ml, ten animals) was 87.5 % Control and the “ED50, attenuation of abdominal hypersensitivity (pancreatitis model)” value [4] was 0.03 mg/kg. The “Compound 48/80 Model ED50 (mg/kg, iv, 15 min post-dose)” value [5] was 0.08 (0.04-0.2) mg/kg and the “GNTI Model ED50 (mg/kg, iv, 15 min post-dose)” value [6] was 0.05 (0.02-0.1) mg/kg.
